Reference: US12377066B2, “Treatment of diseases associated with biliary system destruction” (Assistance Publique-Hopitaux de Paris, priority 2018, dated 2025)
“Also recorded” adds a separate entry of the source.

How the values were obtained:
[1] = system: Vps15 LKO mice; experiment: Histological analyses of liver tissue (hematoxylin/eosin, Sirius Red) in treated control and Vps15 LKO mice; type: in vivo; settings: two weeks
From the text: (§1) The Vsp15 conditional mutant mouse line was established at the MCI/ICS (Mouse Clinical Institute—Institute Clinique de la Souris, Illkirch, France) as described (Nemazanyy, I. et al. Defects of Vps15 in skeletal muscles lead to autophagic vacuolar myopathy and lysosomal disease. EMBO Mol. Med. (2013). Liver specific Vps15 knockout mouse line was generated as described (Nemazanyy I et al., Class III PI3K regulates organismal glucose homeostasis by providing negative feedback on hepatic insulin signalling. Nat Commun. 2015 Sep. 21; 6:8283.). Mice were housed in specific pathogen-free conditions. Male mice (5-8-week-old) were used for the experimentation. Mice were randomly allocated to experimental groups and at least three animals were used for each condition (as indicated in figure legends) to ensure statistics analyses. Animal numbers were chosen to reflect the expected magnitude of response that takes into account the variability observed in previous experiments. All animal studies were approved by the Direction Départementale des Services Vétérinaires, Prefecture de Police, Paris, France (authorization number 75-1313) and the ethical committee of Paris Descartes University (17-052).
(§2) All animals used in the study were fed ad libitum standard chow diet (Teklad global protein diet; 20% protein, 75% carbohydrate, 5% fat) and kept under 12 h/12 h (8 am/8 pm) light on/off cycle. Animals were sacrificed between 2-4 pm unless indicated. […] For 5-bromo-2′deoxyuridine (BrdU) incorporation, mice were treated with BrdU (3 mg/ml, Sigma-Aldrich) dissolved in drinking water for 3 days before sacrifice. […]. For immunohistochemical analysis liver tissue was fixed overnight in phosphate-buffered 10% formalin and embedded in paraffin. […] sections were cut and processed either for staining with eosin/hematoxylin, Sirius Red or for immunohistochemical analyses. Plasmatic TG, Billirubin, Hydroxybutyrate, AST and ALAT activities were measured enzymatically using Olympus AU 400 apparatus.
For immunohistochemical analysis, liver tissue was fixed overnight in phosphate-buffered 10% formalin and embedded in paraffin. 4 μm sections were cut and processed either for staining with eosin/hematoxylin or for immunohistochemical analyses. Post-staining analyses were performed on digitalized with the NanoZoomer S210 (Hamamatsu) liver tissue slices. Immunohistochemistry of liver tissue sections was performed using anti-p62 (Abnova), anti-TROMA-III-s (DSHB), anti-cytokeratin (AbCyst) or with anti-Lamp1 (Abcam) antibodies.

[2] = system: Vps15 LKO mice; experiment: Plasma biochemical analyses (TG, ALAT, AST) and spleen weight to body weight ratio in treated mice; type: in vivo; settings: two weeks
From the text: as §1, §2

[3] = system: Vps15 LKO mice; experiment: Targeted metabolomics of acyl-carnitine fatty acid species in liver tissue of treated mice; type: in vivo; settings: two weeks
From the text: as §1, §2
Targeted metabolomics analyses were performed on liver tissue extracts obtained with solution of 50% methanol, 30% ACN, and 20% water. The volume of extraction solution added was calculated from weight of powdered tissue (60 mg/ml). After addition of extraction solution, samples were vortexed for 5 min at 4° C., and then centrifuged at 16,000×g for 15 min at 4° C. The supernatants were collected and analysed by liquid chromatography-mass spectrometry using SeQuant ZIC-pHilic column (Merck) for the liquid chromatography separation. Mobile phase A consisted of 20 mM ammonium carbonate plus 0.1% ammonia hydroxide in water. Mobile phase B consisted of ACN. The flow rate was kept at […], and the gradient was 0 min, 80% of B; 30 min, 20% of B; 31 min, 80% of B; and 45 min, 80% of B. The mass spectrometer (QExactive Orbitrap, Thermo Fisher Scientific) was operated in a polarity switching mode and metabolites were identified using TraceFinder Software (Thermo Fisher Scientific). For analyses, metabolomics data were normalized using the median normalization method. MetaboAnalyst 4.0 software was used for heatmaps generation. The algorithm for heatmap clustering was based on the Pearson distance measure for similarity and the Ward linkage method for biotype clustering.

[4] = system: Vps15 LKO mice; experiment: Immunoblot analyses of total protein liver extracts (Lamp1, Lamp2, p62, LC3, FABP1) of treated mice; type: in vivo; settings: two weeks
From the text: as §1, §2
To prepare protein extract for immunoblot analysis, liver tissue was homogenized in lysis buffer containing 20 mM Tris-HCl (pH 8.0), 5% glycerol, 138 mM NaCl, 2.7 mM KCl, 1% NP-40, 20 mM NaF, 5 mM EDTA, 1× protease inhibitors (Roche), 1× PhosphoStop Inhibitors (Roche). Homogenates were spun at 12000×g for 10 min at 4° C. Protein extracts were resolved by SDS-PAGE before transfer onto PVDF membrane followed by incubation with the primary antibodies and HRP-linked secondary antibodies. Immobilon Western Chemiluminescent HRP Substrate (Millipore) was used for the detection. The images were acquired using ChemiDocTouch Imaging System (BioRad) and the quantification performed using ImageJ software.

[5] = system: PPARα; type: in vivo; settings: Vps15 LKO mice, two weeks
Procedure: All animals used in the study were fed ad libitum standard chow diet (Teklad global protein diet; 20% protein, 75% carbohydrate, 5% fat) and kept under 12 h/12 h (8 am/8 pm) light on/off cycle. Animals were sacrificed between 2-4 pm unless indicated. […] Plasmatic TG, Billirubin, Hydroxybutyrate, AST and ALAT activities were measured enzymatically using Olympus AU 400 apparatus.
Total RNA was isolated from liver tissue using RNAeasy Lipid Tissue Mini Kit (Qiagen). Single-strand complementary DNA was synthesized from 1 μg of total RNA using 125 ng of random hexamer primers and SuperScript II (Life Technologies). RT-qPCR was performed on MX3005P instrument (Agilent) using a Brilliant III Ultra-Fast QPCR Master Mix (Agilent). The relative amounts of the mRNAs studied were determined by means of the 2^−ΔΔCT method, with pinin, S18, cyclophilin, eIF2α, HUS, Ubiquitin as reference genes for studies in mice and pinin for studies in human patient samples.

[6] = system: BA patients; settings: large clinical use during many years, no controlled studies; cited from earlier work
[7] = Vps15 LKO mice, drug incorporated in food
[8] = Vps15 LKO mice, drug incorporated in food, listed as BEZA
[9] = Vps15 LKO mice, once per day by oral gavage
[10] = Vps15 LKO mice, once per day by oral gavage, listed as FENO
[11] = control mice, fenofibrate incorporated in food

CC(C)(Oc1ccc(CCNC(=O)c2ccc(Cl)cc2)cc1)C(=O)O [bezafibrate, 2-(4-(2-((4-chlorobenzoyl)amino)ethyl)phenoxy)-2-methylpropanoic acid]
hepatocyte volume (histology) [1, 7]: reduce hepatocyte volume | hepatocyte vacuolation (hematoxylin/eosin) [1, 8]: sufficient to decrease hepatocyte vacuolation; also recorded: rescues hepatocyte vacuolation | portal area organization / architecture of intrahepatic biliary system (histology) [1, 8]: improve the portal area organization; also recorded: ameliorates architecture of intrahepatic biliary system | liver damage: activity of transaminases (ALAT, AST) in plasma [2, 7]: fenofibrate, independently of mode of administration, was more effective in lowering liver damage compared to bezafibrate treatment | spleen hypertrophy (ratio of spleen weight to body weight) [2, 7]: decreasing spleen hypertrophy | triglyceride (TG) levels in plasma [2, 7]: effective in lowering TG levels | fatty acid oxidation in liver (metabolomics) ([3]; drug incorporated in food): marked restoration of fatty acid oxidation | levels of long-chain fatty acid carnitines in liver ([3]; drug incorporated in food): decreased levels of long-chain fatty acid carnitines | levels of short-chain fatty acid carnitines in liver ([3]; drug incorporated in food): increased levels of short-chain fatty acid carnitines | fatty acid oxidation in liver (metabolomics) ([3]; drug incorporated in food, listed as BEZA): sufficient to restore the metabolic activity such as fatty-acid oxidation | LC3 lipidation (LC3-II form) in liver (immunoblot) [4, 7]: promoted LC3-lipidation | accumulation of Lamp proteins (Lamp1, Lamp2) in liver (immunoblot) [4, 7]: reduced | autophagic clearance in liver [4, 7]: promoted autophagic clearance | p62 protein levels in liver (immunoblot) [4, 7]: reduction of p62 accumulation | protein expression of PPARα target Fabp1 in liver (immunoblot) [4, 7]: equally effective in restoring | LC3 lipidation (LC3-II form) in liver (immunoblot) [4, 8]: increased lipidation of LC3 | accumulation of Lamp proteins (Lamp1, Lamp2) in liver (immunoblot) [4, 8]: decreased Lamp1 and p62 protein levels | p62 protein levels in liver (immunoblot) [4, 8]: decreased Lamp1 and p62 protein levels | PPARα transcriptional activity in liver (transcript levels of PPARα target genes) ([5]; drug incorporated in food (fenofibrate 200 mg/kg or bezafibrate 0.5%)): equally efficient in restoring PPARα transcriptional activity; also recorded: restoration of PPARα function | liver inflammation (transcript levels of TNF1α, IL1β, F4/80) ([5]; drug incorporated in food): effective in reducing the inflammation

CC(C)OC(=O)C(C)(C)Oc1ccc(C(=O)c2ccc(Cl)cc2)cc1 [fenofibrate, 2-{4-[(4-chlorophenyl)carbonyl]phenoxy}-2-méthylpropanoatede propan-2-yle]
hepatocyte vacuolation (hematoxylin/eosin) [1, 7]: significantly decrease hepatocyte vacuolation; also recorded: rescues hepatocyte vacuolation | hepatocyte volume (histology) [1, 7]: reduce hepatocyte volume | inflammatory cell infiltration in liver (histology) [1, 7]: reduce hepatocyte volume and inflammatory cell infiltration | liver fibrosis / collagen deposition (quantification of Sirius Red staining) [1, 7]: lower; also recorded: decreased | portal area organization / architecture of intrahepatic biliary system (histology) [1, 7]: effective in improving the portal area organization; also recorded: ameliorates architecture of biliary system | hepatocyte volume (histology) [1, 9]: reduce hepatocyte volume | hepatocyte vacuolation (hematoxylin/eosin) [1, 10]: sufficient to decrease hepatocyte vacuolation; also recorded: rescues hepatocyte vacuolation | portal area organization / architecture of intrahepatic biliary system (histology) [1, 10]: improve the portal area organization; also recorded: ameliorates architecture of intrahepatic biliary system | hepatocyte hypertrophy (histology) [1, 11]: resulted in hepatocyte hypertrophy | liver damage: activity of transaminases (ALAT, AST) in plasma [2, 7]: significantly decreased activity of transaminases; also recorded: more effective in lowering liver damage compared to bezafibrate; also recorded: significantly ameliorates liver damage | triglyceride (TG) levels in plasma [2, 7]: resulted in their normalization; also recorded: effective in lowering TG levels; also recorded: beneficial effect in lowering plasmatic triglycerides | triglyceride (TG) levels in plasma [2, 9]: effective in lowering TG levels | triglyceride levels in plasma [2, 11]: effective in lowering triglyceride levels | fatty acid oxidation in liver (metabolomics) ([3]; once per day by oral gavage): marked restoration of fatty acid oxidation | levels of long-chain fatty acid carnitines in liver ([3]; once per day by oral gavage): decreased levels of long-chain fatty acid carnitines | levels of short-chain fatty acid carnitines in liver ([3]; once per day by oral gavage): increased levels of short-chain fatty acid carnitines | fatty acid oxidation in liver (metabolomics) ([3]; once per day by oral gavage, listed as FENO): sufficient to restore the metabolic activity such as fatty-acid oxidation | LC3 lipidation (LC3-II form) in liver (immunoblot) [4, 7]: induced an important lipidation of LC3 protein; also recorded: promoted LC3-lipidation | accumulation of Lamp proteins (Lamp1, Lamp2) in liver (immunoblot) [4, 7]: significantly ameliorated; also recorded: significantly reverted | autophagic clearance in liver [4, 7]: promotes autophagic clearance | p62 protein levels in liver (immunoblot) [4, 7]: significantly ameliorated; also recorded: decreased levels of p62 protein | LC3 lipidation (LC3-II form) in liver (immunoblot) [4, 9]: promoted LC3-lipidation | accumulation of Lamp1 protein in liver (immunoblot) [4, 9]: reduced | autophagic clearance in liver [4, 9]: promoted autophagic clearance | p62 protein levels in liver (immunoblot) [4, 9]: reduction of p62 accumulation | protein expression of PPARα target Fabp1 in liver (immunoblot) [4, 9]: equally effective in restoring | LC3 lipidation (LC3-II form) in liver (immunoblot) [4, 10]: increased lipidation of LC3 | accumulation of Lamp1 protein in liver (immunoblot) [4, 10]: decreased Lamp1 and p62 protein levels | p62 protein levels in liver (immunoblot) [4, 10]: decreased Lamp1 and p62 protein levels | LC3 lipidation (LC3-II form) in liver (immunoblot) [4, 11]: induced an important lipidation of LC3 protein; also recorded: promoted LC3-lipidation

desoxycholic acid [UDCA]
prognosis of patients (% of liver transplantation or survival) [6]: provided no evidence that it might positively affect prognosis of the patients
